A short description of this data set: gradient 5% acetonitrile 3 min, to 50% in 2 min, to 85% in 15 min, held 3 min, 100 µL/min. As to conditions: column: Zorbax Extend-C18 2.1 x 50 mm; eluents: water / acetonitrile, 0.1% formic acid. A digest of the protocol:
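Values are retention times taken from adduct peaks that software picked and an analyst inspected. The pure standards were run as mixtures of ~100 molecules on HPLC linked to a quadrupole time-of-flight mass spectrometer, in positive and negative ionization mode. A Zorbax Extend-C18 column (2.1 × 50 mm, 1.8 μm) was used at 100 μL/min with water and acetonitrile, each including 0.1% formic acid.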
In turn, `O=C(NCCCN1CCCc2ccccc21)c1nnc(-c2ccc(S(=O)(=O)N3CCCC3)cc2)o1` had an RP-LC retention time of 1020 s.

As for `Cn1c(N2CCN(C(=O)c3ccccc3Br)CC2)cc(=O)n(C)c1=O`, the RP-LC retention time is 668 s. `CCc1nc2cccnc2n1CCN1CCN(C(=O)Nc2ccc(C)cc2Cl)CC1` came in with an RP-LC retention time of 616 s. In turn, `Cc1ccc(-n2nc(N3CCN(C(=O)CC(C)C)CC3)ccc2=O)cc1C` returned an RP-LC retention time of 831 s.

`CC(=O)Nc1ccc(NC(=O)c2cc3sccc3n2Cc2ccc(Cl)cc2)cc1` came in with an RP-LC retention time of 965 s. Molecule `O=C(Nc1nc2c(s1)CN(C(=O)c1cnn(-c3ccccc3)n1)CC2)C1CCCO1` (stereo not given) showed an RP-LC retention time of 762 s. On to `Cc1ccc(CNC(=O)c2ccc(-c3cccs3)nc2)o1`, for which the RP-LC retention time was found to be 869 s. The molecule `Cc1noc(C)c1CC(=O)N(C)C1CCc2nn(CC3CC3)c(=O)n2CC1` (stereo not given) gave an RP-LC retention time of 630 s. As for `COc1cc(CN2CCCC2c2cc(C(C)C)no2)ccc1OCC(N)=O` (stereo not given), the figure is 584 s; as for `CN1C(=O)c2cc(C(=O)N3CCN(c4ccccc4)CC3)nn2CC1(C)C(=O)NC1CCCCC1` (stereo not given), 803 s.

Take `Cc1ccc(-c2nc(C3CCN(S(=O)(=O)c4ccccc4F)CC3)no2)cc1`: the RP-LC retention time stood at 1170 s.

As for `O=S(=O)(c1ccc2c(c1)CCC2)N1CCCC(Cn2c(C3CC3)nc3cccnc32)C1` (stereo not given), the RP-LC retention time stood at 775 s. As for `COC(=O)CNC(=O)NC(C(=O)N1CCc2ccccc21)C(C)C` (stereo not given), the RP-LC retention time worked out at 740 s. Regarding `CCc1ccccc1NC(=O)NCC(c1cccnc1)c1c[nH]c2ccccc12` (stereo not given), the RP-LC retention time worked out at 669 s.

Molecule `O=C1CC(c2ccccc2)Oc2ccccc21` (stereo not given) had an RP-LC retention time of 932 s. `Cc1sc(NC(=O)c2ccc(Cl)cc2)nc1-c1ccc2c(c1)NC(=O)C(C)O2` (stereo not given) displayed an RP-LC retention time of 968 s. `CCOC(=O)c1cc2c([nH]c1=O)CC(c1cccc(Cl)c1)CC2=O` (stereo not given) displayed an RP-LC retention time of 770 s.

In the case of `Cc1ccc(-c2csc(-c3cccn3CC(=O)N3CCCC3)n2)cc1`, the RP-LC retention time is 1070 s. As for `CC(C)n1cnc2cc(CNC(=O)C3CCCC3)ccc21`, the figure is 595 s; as for `Cc1cc(-c2ccc(S(=O)(=O)N3CCC(C(=O)NCc4cccs4)CC3)o2)n[nH]1`, 735 s.

Molecule `Cc1ccc(CNC(=O)c2ccc(NC(=O)C3CC3)cc2N2CCOCC2)o1` had an RP-LC retention time of 768 s. As for `O=C(COc1ccc(Cl)cc1)N1CCc2nc[nH]c2C1`, the figure is 606 s. The molecule `CCCNC(=O)CCc1nc2ccccc2n(CC(=O)Nc2ccc(OC)c(OC)c2)c1=O` returned an RP-LC retention time of 1110 s.

In turn, `CC(C)Cn1c(-c2ccccc2)nc2ccccc21` displayed an RP-LC retention time of 675 s. Molecule `COc1ccc(-n2nc3c(N4CCCC(C(=O)NCCc5ccccc5)C4)nnc(C)c3c2C)cc1` (stereo not given) displayed an RP-LC retention time of 740 s. For `COC(=O)C1=C(N)Oc2cc(C)n(CCN(C)C)c(=O)c2C1c1ccccc1F` (stereo not given), the RP-LC retention time was determined as 616 s. For `Cc1ccccc1CNC(=O)c1ccc2c(c1)nc1n2CCN(C2CCCCC2)C1=O`, the RP-LC retention time is 836 s. Take `CC(C)c1cc(N2CCN(c3ccccn3)CC2)n2ncc(-c3ccccc3)c2n1`: the RP-LC retention time worked out at 670 s.

Molecule `O=C(NCCc1csc(-c2ccccc2)n1)C1CCN(S(=O)(=O)c2cccs2)CC1` yielded an RP-LC retention time of 776 s. `CCN1CCCc2cc(C(=O)NC3CCCC3)sc21` showed an RP-LC retention time of 961 s.

The molecule `CCC1(C(=O)Nc2ccc(C)cc2)CCCCC(=O)N1` (stereo not given) returned an RP-LC retention time of 736 s.

Molecule `COc1ccc(Cl)cc1S(=O)(=O)N1CCCC(C(=O)NCc2ccncc2)C1` (stereo not given) came in with an RP-LC retention time of 622 s. For `COc1ccc2[nH]cc(CCO)c2c1` the value was 660 s; for `O=C(O)c1cnc(NCC2CC2)nc1-c1ccccc1`, 745 s; for `CCOC(=O)N1CCC(NC(=O)CCC2CCN(c3cc(NC4CC4)ncn3)CC2)CC1`, 619 s.

The molecule `O=C(NCc1cccc(C(F)(F)F)c1)C1(CCO)CCN(c2ncccn2)C1` (stereo not given) had an RP-LC retention time of 669 s. Take `CCC1CCCCN1C(=O)c1cnc2nc(C)ccc2c1Nc1cccc(C)c1C` (stereo not given): the RP-LC retention time was found to be 720 s. Turning to `CCC(C(=O)Nc1ccc(C(C)=O)cc1)n1cnc2nc3c(cc2c1=O)CCCC3` (stereo not given), the RP-LC retention time stood at 748 s. In turn, `COc1ccc(CCNC(=O)c2c(N3CCCC3=O)c3cc(OC)ccc3n2C)c(OC)c1` registered an RP-LC retention time of 877 s. For `CN(C)S(=O)(=O)N(CC(=O)Nc1ccc(F)c(Cl)c1)c1ccccc1` the value was 986 s; for `COc1ccc(NC(=O)C2CCN(S(=O)(=O)c3cc4c(cc3C)NC(=O)CO4)CC2)cc1OC`, 712 s.

Turning to `COc1ccc2sc(Nc3nnc(-c4ccc5c(c4)OCCO5)o3)nc2c1`, the RP-LC retention time turned out to be 802 s. As to `O=C(CCCc1ccccc1)NCC1CN(c2ccc3c(c2)OCO3)C(=O)O1` (stereo not given), the RP-LC retention time stood at 750 s. Regarding `CCOC(=O)C1CCN(C(=O)C2CCN(c3nnc(-c4ccc(OC)cc4)o3)CC2)CC1`, the RP-LC retention time came to 792 s. With `O=C1COc2cc(S(=O)(=O)N3CCCC3C(=O)N3CCOCC3)c(Cl)cc2N1` (stereo not given), the RP-LC retention time came out at 628 s. The molecule `COc1ccc(C(=O)CC2(O)C(=O)Nc3ccccc32)cc1` (stereo not given) showed an RP-LC retention time of 669 s. Take `CCn1cc(-c2nc(C)c(C(=O)NCc3ccccn3)s2)c2cccnc21`: the RP-LC retention time amounted to 946 s.

Turning to `COc1ccc(-c2noc(C3CCCN3C(=O)Cc3ccsc3)n2)cc1` (stereo not given), the RP-LC retention time worked out at 928 s.

`Cc1noc([C@@H]2CN(C(=O)c3cscn3)C[C@H]2C(N)=O)n1` yielded an RP-LC retention time of 556 s. In the case of `COc1cc(NC(=O)CSC2CCc3ccccc3NC2=O)cc(OC)c1OC` (stereo not given), the RP-LC retention time came out at 719 s. The molecule `CCN(CC)C(=O)C1CCCN(c2ncnc3c2nc2n3CCCCC2)C1` (stereo not given) came in with an RP-LC retention time of 708 s. `Cc1sc(NC(=O)c2ccco2)nc1-c1ccc2c(c1)NC(=O)CO2`: the RP-LC retention time was determined as 770 s. `COC[C@@H]1CN(C(=O)c2ccc(C#N)cc2)C[C@H]1C(N)=O` returned an RP-LC retention time of 571 s. `CC(=O)N1CCc2cc(-c3ccc(C(=O)NCCc4cccs4)cc3)ccc21` came in with an RP-LC retention time of 843 s.

On to `CCCN1C(=O)C(CC(=O)NCC2CCCO2)Sc2ncccc21` (stereo not given), for which the RP-LC retention time stood at 663 s. `CCc1nnc(-c2cc(C)n(CC(=O)Nc3ccc(OC)cc3)c2C)o1` yielded an RP-LC retention time of 753 s. For `O=C(Nc1ccc(N2CCCS2(=O)=O)cc1)NC(c1ccccc1)c1ccccc1` the value was 814 s; for `CC(C)CNC(=O)C1CCN(C(=O)c2ncn3c2COC(c2ccc(F)cc2)C3)CC1` (stereo not given), 711 s; for `Cc1cc(C)cc(N2C(=O)CC(N3CCC(C(N)=O)CC3)C2=O)c1` (stereo not given), 562 s.

Consider `Cc1ccccc1Cn1nc2c(S(=O)(=O)N3CCc4ccccc4C3)cccn2c1=O`, for which the RP-LC retention time worked out at 987 s.

`CCn1ccc(C(=O)Nc2ccccc2)n1` gave an RP-LC retention time of 801 s.

As for `Cc1ccc2nc(-c3ccccc3NC(=O)c3ccc(Br)o3)[nH]c2c1`, the RP-LC retention time worked out at 1140 s. On to `CCc1ccc(Oc2cc(N3CCC(C(=O)NCCc4cccnc4)CC3)ncn2)cc1`, for which the RP-LC retention time stood at 657 s. As for `COc1ccc(N2CC(c3noc(-c4ccc5c(c4)OCO5)n3)CC2=O)cc1OC` (stereo not given), the figure is 770 s; as for `CCNC(=O)C(=O)NCC(c1ccc2c(c1)CCCN2C)N1CCCCC1` (stereo not given), 649 s; as for `Cc1[nH]c(/C=C2\C(=O)Nc3ccccc32)c(C)c1CCC(=O)O`, 820 s. In turn, `Cc1c(-c2noc(C(=O)NCCN3CCCCCC3)n2)oc2ccccc12` registered an RP-LC retention time of 710 s. `COc1ccc(-c2cc3c4nnc(CCC(=O)N5CCCC5)n4ccn3n2)cc1` came in with an RP-LC retention time of 686 s.

On to `CC(C)n1cc2cc(C(=O)N3CCN(Cc4ccc5c(c4)OCO5)CC3)sc2c1`, for which the RP-LC retention time is 696 s. `Cc1ccc(=O)n(CCNC(=O)Cc2cn(C)c3ccccc23)n1` came in with an RP-LC retention time of 620 s. As for `CCC(=O)N1c2ccc(S(=O)(=O)N3CCCCC3)cc2CC1C(=O)NC1CCCCCC1` (stereo not given), the figure is 1010 s; as for `CCOC(=O)c1noc2ncnc(NCc3ccc(OC)cc3)c12`, 938 s; as for `Cc1ccccc1NC(=O)c1ccc(=O)n(CCN2CCCC2)c1`, 584 s. As for `CC(C)CCNC(=O)C1(C)Cn2nc(C(=O)NCC(C)c3ccccc3)cc2C(=O)N1C` (stereo not given), the figure is 833 s; as for `CC1(C(=O)NCc2ccccc2)CN(S(C)(=O)=O)CC(=O)N1C1CC1` (stereo not given), 662 s. In the case of `CC1CCN(S(=O)(=O)c2ccc3nc(N4CCN(C(=O)c5ccco5)CC4)ccc3c2)CC1`, the RP-LC retention time was determined as 852 s. `COc1ccc(NC(=O)C2CCCN(S(=O)(=O)c3c[nH]c(C(=O)N4CCCC4)c3)C2)cc1Cl` (stereo not given) gave an RP-LC retention time of 819 s. As to `CNC(=O)C1CCCN(c2nc3ncn(CC(=O)NCCC4=CCCCC4)c(=O)c3s2)C1` (stereo not given), the RP-LC retention time came out at 685 s. Molecule `NC(=O)c1cc(N2CCOCC2)nc2c(Cl)cccc12` came in with an RP-LC retention time of 720 s.

Turning to `Cc1cc(C(=O)N2CC(Oc3ccc(-c4nc(-c5ccccc5)no4)cc3)C2)n(C)n1`, the RP-LC retention time was 1060 s.

For the origin of these results see the METLIN SMRT retention time set (Domingo-Almenara et al. 2019).
